From PubChem BioAssay AID218 (DTP/NCI, 2004)
Values joined by “and” are separate entries in the source; they are usually repeats but may differ in a detail not shown here. Equal values may be shown once. Starred links: 1 amine or outer side, 2 acyl side, 3 side chain; linkers in the order of their positions; H or OH if unused. Positions of bridges follow the written chain, without caps; N, C: chain ends. Non-standard residues stand in square brackets, D forms with d. Residues, ends and D or L forms follow the SMILES beside them. Chains are numbered I, II in the order given. Actinocin(9to1) = Cc1c2oc3c(C)ccc(C(=O)[*:1])c3nc-2c(C(=O)[*:2])c(N)c1=O; aThr = C[C@H](O)[C@H](N)C(=O)O; NMeV = CN[C@H](C(=O)O)C(C)C; Sar = CNCC(=O)O

System: C57BL/6 mice, Adenocarcinoma 755 sc, tumor weight T/C
Assay: NCI In Vivo Anticancer Drug Screen. Data for tumor model Adenocarcinoma 755 (subcutaneous) in C57BL/6 mice
Settings: endpoint: mean tumor weight, higher = larger tumour
Protocol: The antitumor activity of compounds was measured in mice bearing transplantable tumors. Survival or tumor size were measured and the results are expressed as the measurement made in the treated group (T) divided by the measurement made in the vehicle treated control group (C). The tumor model used in this assay is Adenocarcinoma 755 (subcutaneous) in C57BL/6 mice

[1] = dose: 2.0 mg/kg/injection, schedule: Q01DX011 (ip), vehicle: saline
[2] = dose: 7.5 mg/kg/injection, schedule: Q01DX011 (oral), vehicle: saline
[3] = dose: 5.0 mg/kg/injection, schedule: Q01DX011 (ip), vehicle: saline
[4] = dose: 10.0 mg/kg/injection, schedule: Q01DX011 (ip), vehicle: saline
[5] = dose: 100.0 mg/kg/injection, schedule: Q01DX011 (ip), vehicle: saline
[6] = dose: 25.0 mg/kg/injection, schedule: Q01DX011 (ip), vehicle: saline
[7] = dose: 125.0 mg/kg/injection, schedule: Q01DX011 (ip), vehicle: saline
[8] = dose: 150.0 mg/kg/injection, schedule: Q02DX006 (ip), vehicle: saline
[9] = dose: 200.0 mg/kg/injection, schedule: Q02DX006 (ip), vehicle: saline

C=CC(CN1CC1)OC(C)=O (centres undefined)
T/C (dose: 1.0 mg/kg/injection, schedule: Q01DX011 (oral), vehicle: saline): 63 % of control
T/C (dose: 1.0 mg/kg/injection, schedule: Q#A X022 (ip), vehicle: saline): 92 % of control
T/C [1]: 66 % of control
T/C (dose: 2.0 mg/kg/injection, schedule: Q01DX011 (oral), vehicle: saline): 49 % of control
T/C (dose: 2.0 mg/kg/injection, schedule: Q#A X022 (ip), vehicle: saline): 43 % of control
T/C (dose: 3.25 mg/kg/injection, schedule: Q01DX011 (oral), vehicle: saline): 38 % of control
T/C (dose: 4.0 mg/kg/injection, schedule: Q01DX011 (ip), vehicle: saline): 38 % of control
T/C (dose: 4.0 mg/kg/injection, schedule: Q01DX011 (oral), vehicle: saline): 26 % of control
T/C (dose: 4.0 mg/kg/injection, schedule: Q01DX011 (sc), vehicle: saline): 14 % of control
T/C (dose: 6.0 mg/kg/injection, schedule: Q03DX004 (ip), vehicle: saline): 88 % of control
T/C [2]: 15 % of control
T/C (dose: 8.0 mg/kg/injection, schedule: Q01DX011 (ip), vehicle: saline): 17 % of control
T/C (dose: 8.0 mg/kg/injection, schedule: Q01DX011 (oral), vehicle: saline): 21 % of control
T/C (dose: 8.0 mg/kg/injection, schedule: Q01DX011 (sc), vehicle: saline): 8 % of control
T/C (dose: 12.0 mg/kg/injection, schedule: Q03DX004 (ip), vehicle: saline): 59 % of control
T/C (dose: 16.0 mg/kg/injection, schedule: Q01DX011 (oral), vehicle: saline): 5 % of control
T/C (dose: 24.0 mg/kg/injection, schedule: Q03DX004 (ip), vehicle: saline): 11 % of control

O=P1(N(CCF)CCF)NCCCO1 (centres undefined)
T/C (dose: 0.94 mg/kg/injection, schedule: Q01DX011 (ip), vehicle: saline): 40 % of control
T/C (dose: 1.88 mg/kg/injection, schedule: Q01DX011 (ip), vehicle: saline): 56 % of control
T/C (dose: 3.75 mg/kg/injection, schedule: Q01DX011 (ip), vehicle: saline): 22 % of control

CNc1ncnc2c1cnn2C
T/C [1]: 84 % of control
T/C [3]: 89 % of control
T/C [4]: 120 % of control
T/C (dose: 20.0 mg/kg/injection, schedule: Q01DX011 (ip), vehicle: saline): 36 % of control

O=[N+]([O-])c1ccc(CSc2ncnc3nc[nH]c23)cc1
T/C [5]: 4 % of control

CS(=O)(=O)OCCCOS(C)(=O)=O
T/C (dose: 15.0 mg/kg/injection, schedule: Q01DX011 (ip), vehicle: methylcellulose (MC)): 83 % of control
T/C (dose: 30.0 mg/kg/injection, schedule: Q01DX011 (ip), vehicle: methylcellulose (MC)): 35 % of control

CCCNc1ncnc2[nH]ncc12
T/C [4]: 62 % of control
T/C (dose: 15.0 mg/kg/injection, schedule: Q01DX011 (ip), vehicle: saline): 39 % of control

c1ccc(CNc2ncnc3[nH]ncc23)cc1
T/C [6]: 27 % of control
T/C (dose: 30.0 mg/kg/injection, schedule: Q01DX011 (ip), vehicle: saline): 25 % of control
T/C (dose: 40.0 mg/kg/injection, schedule: Q01DX011 (ip), vehicle: saline): 4 % of control

NNC(=O)c1nsnc1NC(N)=O
T/C (dose: 6.0 mg/kg/injection, schedule: Q01DX011 (ip), vehicle: carboxymethylcellulose (CMC)): 109 % of control
T/C (dose: 11.0 mg/kg/injection, schedule: Q01DX011 (ip), vehicle: carboxymethylcellulose (CMC)): 107 % of control
T/C (dose: 22.0 mg/kg/injection, schedule: Q01DX011 (ip), vehicle: carboxymethylcellulose (CMC)): 99 % of control

Cn1c(N)nc2nc[nH]c2c1=S
T/C (dose: 1.0 mg/kg/injection, schedule: Q01DX008 (iv), vehicle: saline): 169 % of control
T/C (dose: 2.0 mg/kg/injection, schedule: Q01DX008 (iv), vehicle: saline): 173 % of control
T/C (dose: 4.0 mg/kg/injection, schedule: Q01DX008 (iv), vehicle: saline): 79 % of control
T/C (dose: 32.0 mg/kg/injection, schedule: Q01DX008 (iv), vehicle: saline): 67 % of control
T/C (dose: 64.0 mg/kg/injection, schedule: Q01DX008 (iv), vehicle: saline): 65 % of control

CCOC(=O)n1cnc2ncnc(N)c21
T/C (dose: 25.0 mg/kg/injection, schedule: Q01DX011 (ip), vehicle: carboxymethylcellulose (CMC)): 56 % of control
T/C (dose: 75.0 mg/kg/injection, schedule: Q01DX011 (ip), vehicle: carboxymethylcellulose (CMC)): 104 % of control

CCCCNc1nc(N(C)C)nc2nc[nH]c12
T/C (dose: 37.0 mg/kg/injection, schedule: Q01DX011 (ip), vehicle: saline): 80 % of control
T/C (dose: 75.0 mg/kg/injection, schedule: Q01DX011 (ip), vehicle: saline): 29 % of control
T/C (dose: 90.0 mg/kg/injection, schedule: Q01DX011 (ip), vehicle: saline): 56 % of control
T/C [7]: 47 % of control

C=CC(COC(C)=O)N1CC1 (centres undefined)
T/C (dose: 1.87 mg/kg/injection, schedule: Q01DX011 (oral), vehicle: saline): 107 % of control
T/C (dose: 3.75 mg/kg/injection, schedule: Q01DX011 (oral), vehicle: saline): 56 % of control
T/C [2]: 70 % of control and 80 % of control

[N-]=[N+]=CC(=O)CCC(N)C(=O)O (centres undefined)
T/C (dose: 0.04 mg/kg/injection, schedule: Q01DX011 (ip), vehicle: saline): 110 % of control
T/C (dose: 0.05 mg/kg/injection, schedule: Q01DX011 (ip), vehicle: saline): 22 % of control
T/C (dose: 0.08 mg/kg/injection, schedule: Q01DX011 (ip), vehicle: saline): 46 % of control
T/C (dose: 25.0 micrograms/kg/injection, schedule: Q01DX011 (ip), vehicle: saline): 39 % of control
T/C (dose: 50.0 micrograms/kg/injection, schedule: Q01DX011 (ip), vehicle: saline): 45 % of control

CC1CN1P(=S)(N1CC1C)N1CC1C (centres undefined)
T/C (dose: 1.25 mg/kg/injection, schedule: Q01DX011 (ip), vehicle: saline): 67 % of control
T/C (dose: 2.5 mg/kg/injection, schedule: Q01DX011 (ip), vehicle: saline): 78 % of control
T/C [3]: 91 % of control
T/C [4]: 73 % of control

N/C(=N/N=C/c1ccccc1[N+](=O)[O-])N[N+](=O)[O-]
T/C [8]: 95 % of control
T/C [9]: 76 % of control

N/C(=N/N=C/c1ccc([N+](=O)[O-])cc1)N[N+](=O)[O-]
T/C [8]: 53 % of control
T/C [9]: 37 % of control

CNC=O
T/C [6]: 92 % of control
T/C (dose: 50.0 mg/kg/injection, schedule: Q01DX011 (ip), vehicle: saline): 112 % of control
T/C [5]: 64 % of control and 82 % of control
T/C [7]: 98 % of control
T/C (dose: 175.0 mg/kg/injection, schedule: Q02DX006 (ip), vehicle: water): 40 % of control
T/C (dose: 200.0 mg/kg/injection, schedule: Q01DX011 (ip), vehicle: saline): 9 % of control and 30 % of control
T/C (dose: 225.0 mg/kg/injection, schedule: Q02DX006 (ip), vehicle: water): 56 % of control

CC[N+](CC)(CC)CCO
T/C (dose: 5.0 mg/kg/injection, schedule: Q02DX006 (ip), vehicle: saline): 51 % of control
T/C (dose: 10.0 mg/kg/injection, schedule: Q02DX006 (ip), vehicle: saline): 25 % of control
T/C (dose: 15.0 mg/kg/injection, schedule: Q02DX006 (ip), vehicle: saline): 33 % of control

CC(C)C(=O)OCC1OC(n2cnc3c(=S)nc(N)[nH]c32)C(OC(=O)C(C)C)C1OC(=O)C(C)C (centres undefined)
T/C (dose: 1.5 mg/kg/injection, schedule: Q01DX011 (ip), vehicle: saline): 68 % of control
T/C (dose: 3.0 mg/kg/injection, schedule: Q01DX011 (ip), vehicle: saline): 25 % of control

Cc1c2oc3c(C)ccc(C(=O)N[C@@H]4C(=O)N[C@H](C(C)C)C(=O)N5CCC[C@H]5C(=O)N(C)CC(=O)N(C)[C@@H](C(C)C)C(=O)O[C@H]4C)c3nc-2c(C(=O)N[C@@H]2C(=O)N[C@H](C(C)C)C(=O)N3CCC[C@H]3C(=O)N(C)CC(=O)N(C)[C@@H](C(C)C)C(=O)O[C@H]2C)c(N)c1=O (I: [aThr][dV]P[Sar][NMeV] / II: [aThr][dV]P[Sar][NMeV]; ester I:1-I:C, II:1-II:C; linker I:N-II:N via Actinocin(9to1))
T/C (dose: 0.03 mg/kg/injection, schedule: Q01DX011 (ip), vehicle: saline): 3 % of control

C[C@@H]1CC2=CC(=O)C=C[C@]2(C)[C@H]2CC[C@@]3(C)[C@@H](CC[C@]3(C)O)[C@H]12
T/C (dose: 50.0 mg/kg/injection, schedule: Q01DX011 (sc), vehicle: steriod suspending solution): 70 % of control
T/C (dose: 100.0 mg/kg/injection, schedule: Q01DX011 (sc), vehicle: steriod suspending solution): 73 % of control
T/C (dose: 200.0 mg/kg/injection, schedule: Q01DX011 (sc), vehicle: steriod suspending solution): 58 % of control
T/C (dose: 400.0 mg/kg/injection, schedule: Q01DX011 (sc), vehicle: steriod suspending solution): 29 % of control
